Like-named read-outs stand apart in the source and are kept apart here.
What was measured:
KPC-2 (K. pneumoniae) = KPC-2 (K. pneumoniae) (Klebsiella pneumoniae, UniProt Q9F663); experiment: biochemical
[1] = tested on: CL 6569 (Klebsiella pneumoniae; KPC-2); experiment: Synergy assay (checkerboard) with imipenem against K. pneumoniae strain CL6569; details: for 16X Synergy CL6569: BLI concentration reducing the MIC of imipenem by a factor of 16, K. pneumoniae strain CL6569; for 32X Synergy CL6569: BLI concentration reducing the MIC of imipenem by a factor of 32, K. pneumoniae strain CL6569; for 64X Synergy CL6569: BLI concentration reducing the MIC of imipenem by a factor of 64, K. pneumoniae strain CL6569
Excerpt: The assay determines the concentration of a β-lactamase inhibitor required to reduce the MIC of a β-lactam antibiotic by one-half, one-quarter, one-eighth, one-sixteenth and one-thirty-second against strains of bacteria normally resistant to the antibiotic in question. This is accomplished by titrating the BLI in a serial dilution across a microtiter plate while at the same time titrating the antibiotic in a serial dilution down the microtiter plate and then inoculating the plate with the bacterial strain in question and allowing the bacteria to grow up overnight. Each well in this microplate checkerboard contains a different combination of concentrations of the inhibitor and the antibiotic allowing a full determination of any synergy between the two.
Plates are left at 37° C. for about 20 hours and scored for growth by eye.
Synergy may be expressed as a ratio of the minimum inhibitory concentration (MIC) of an antibiotic tested in the absence of a β-lactamase inhibitor to the MIC of the same antibiotic tested in the presence of the β-lactamase inhibitor. […] Alternatively, the synergy effect may be expressed as a factor, again, utilizing a concentration of the BLI to lower the MIC of the antibiotic.

[2] = tested on: CL 5701 (Pseudomonas aeruginosa; Pa AmpC); experiment: Synergy assay (checkerboard) with imipenem against P. aeruginosa strain CL5701; type: cell-based; details: for 2X Synergy CL5701: BLI concentration reducing the MIC of imipenem by a factor of 2, P. aeruginosa strain CL5701
AmpC (P. aeruginosa) = AmpC (P. aeruginosa) (Pseudomonas aeruginosa (strain ATCC 15692 / DSM 22644 / CIP 104116 / JCM 14847 / LMG 12228 / 1C / PRS 101 / PAO1), UniProt P24735); experiment: biochemical
Procedure: The Class C enzyme activities were measured in the presence of the test inhibitor in spectrophotometric assay against the commercially available substrate, nitrocefin. The enzyme AmpC (P. aeruginosa.), and the substrate, were dissolved in 100 mM KH2PO4 buffer (pH 7). The buffer also contains 0.005% BSA. The test inhibitor was dissolved in DMSO and diluted 1:20 in the assay, resulting in a final concentration range of 50 μM to 0.0002 μM. In a 96-well microplate, the test inhibitor was incubated with the beta-lactamase enzyme for 40 minutes at ambient temperature, the substrate solution was added, and the incubation continued for another 40 minutes. […] The IC50 value was determined from semi logarithmic plots of enzyme inhibition versus inhibitor concentration, with a curve generated using a 4-parameter fit.

[3] = Table 2, read-out: K.p. KPC-2 IC50
[4] = Table 3, read-out: K.p. KPC-2 IC50
[5] = BLI concentration reducing the MIC of imipenem by a factor of 4, P. aeruginosa strain CL5701
[6] = BLI concentration reducing the MIC of imipenem by a factor of 8, P. aeruginosa strain CL5701
[7] = Table 2, read-out: P.a. AmpC IC50
[8] = Table 3, read-out: P.a. AmpC IC50

Chain of KPC-2 (K. pneumoniae) (Q9F663 25-293 limits assumed): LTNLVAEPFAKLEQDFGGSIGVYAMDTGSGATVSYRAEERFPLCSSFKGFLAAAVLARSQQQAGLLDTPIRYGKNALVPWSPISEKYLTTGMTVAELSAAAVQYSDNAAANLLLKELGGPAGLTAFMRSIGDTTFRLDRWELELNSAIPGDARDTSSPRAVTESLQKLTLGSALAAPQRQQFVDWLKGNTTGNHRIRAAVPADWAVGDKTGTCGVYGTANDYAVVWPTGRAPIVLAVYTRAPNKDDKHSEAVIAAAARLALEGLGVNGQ
Chain of AmpC (P. aeruginosa) (P24735 27-397): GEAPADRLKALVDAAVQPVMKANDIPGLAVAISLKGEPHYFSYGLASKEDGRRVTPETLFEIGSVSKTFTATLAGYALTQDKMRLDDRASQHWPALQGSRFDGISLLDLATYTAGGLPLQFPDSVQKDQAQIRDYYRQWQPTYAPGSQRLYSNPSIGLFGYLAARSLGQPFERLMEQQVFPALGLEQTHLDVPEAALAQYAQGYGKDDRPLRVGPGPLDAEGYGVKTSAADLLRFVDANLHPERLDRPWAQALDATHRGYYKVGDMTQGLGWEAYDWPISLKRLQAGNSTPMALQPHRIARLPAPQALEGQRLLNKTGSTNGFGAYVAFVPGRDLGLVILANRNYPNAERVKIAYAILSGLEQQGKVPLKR

Row | IC50 (KPC-2 (K. pneumoniae); [4]) | IC50 (AmpC (P. aeruginosa); [8]) | SMILES | IC50 (KPC-2 (K. pneumoniae); [3]) | 16X Synergy CL6569 [1] | 32X Synergy CL6569 [1] | 64X Synergy CL6569 [1] | 2X Synergy CL5701 [2] | 4X Synergy CL5701 [2, 5] | 8X Synergy CL5701 [2, 6] | IC50 (AmpC (P. aeruginosa)) | IC50 (KPC-2 (K. pneumoniae); K.p. KPC-2 IC50, Table 2) | IC50 (AmpC (P. aeruginosa); [7]) | 4X Synergy CL5701 [2] | 8X Synergy CL5701 [2]
1 |  |  | O=C(N[C@@H]1CCNC1)[C@@H]1CC[C@@H]2CN1C(=O)N2OS(=O)(=O)O [Example 4, (2S,5R)-7-Oxo-N-[(3R)-pyrrolidin-3-yl]-6-(sulfooxy)-1,6-diazabicyclo[3.2.1]-octane-2-carboxamide] |  | 50 µM | 100 µM | 100 µM | 100/100/>100 μM | 100/100/>100 μM | 100/100/>100 μM |  | 4400 nM | 29000 nM |  | 
2 |  |  | O=C(Nc1ccncc1)[C@@H]1CC[C@@H]2CN1C(=O)N2OS(=O)(=O)O [Example 6, (2S,5R)-7-Oxo-N-pyridin-4-yl-6-(sulfooxy)-1,6-diazabicyclo[3.2.1]octane-2-carboxamide] |  | 50 µM | 50 µM | > 100 µM | 12.5 µM |  |  | 6 nM |  |  | 25 µM | 100 µM
3 | 8 nM | 11 nM | COc1cc(NC(=O)[C@@H]2CC[C@@H]3CN2C(=O)N3OS(=O)(=O)O)ccn1 [Example 7, (2S,5R)—N-(2-Methoxypyridin-4-yl)-7-oxo-6-(sulfooxy)-1,6-diazabicyclo[3.2.1]octane-2-carboxamide] | 8 nM | 25 µM | 50 µM | > 100 µM | 50 µM | 100 µM | > 100 µM |  |  | 1.1 nM |  | 
4 | 16 nM | 16 nM | CN(C)c1cc(NC(=O)[C@@H]2CC[C@@H]3CN2C(=O)N3OS(=O)(=O)O)ccn1 [Example 8, (2S,5R)—N-[2-(Dimethylamino)pyridin-4-yl]-7-oxo-6-(sulfooxy)-1,6-diazabicyclo[3.2.1]octane-2-carboxamide] | 1.6 nM | 25 µM | 25 µM | 50 µM | 12.5 µM | 100 µM | > 100 µM |  |  | 1.6 nM |  | 
5 |  |  | NCc1ccc(NC(=O)[C@@H]2CC[C@@H]3CN2C(=O)N3OS(=O)(=O)O)cc1 [Example 9, (2S,5R)—N-[4-(aminomethyl)phenyl]-7-oxo-6-(sulfooxy)-1,6-diazabicyclo[3.2.1]octane-2-carboxamide] | 72 nM | 6.25 µM | 6.25 µM | 12.5 µM | 0.78 µM | 3.12 µM | 6.25 µM |  |  | 20 nM |  | 

Row | SMILES | IC50 (KPC-2 (K. pneumoniae); [4]) | IC50 (AmpC (P. aeruginosa); [8]) | IC50 (KPC-2 (K. pneumoniae); [3]) | 16X Synergy CL6569 [1] | 32X Synergy CL6569 [1] | 64X Synergy CL6569 [1] | 2X Synergy CL5701 [2] | 4X Synergy CL5701 [2, 5] | 8X Synergy CL5701 [2, 6] | IC50 (AmpC (P. aeruginosa)) | IC50 (KPC-2 (K. pneumoniae); K.p. KPC-2 IC50, Table 2) | IC50 (AmpC (P. aeruginosa); [7]) | 4X Synergy CL5701 [2] | 8X Synergy CL5701 [2]
6 | O=C(N[C@H]1CCCNCC1)[C@@H]1CC[C@@H]2CN1C(=O)N2OS(=O)(=O)O [Example 2, (2S,5R)—N-[(4S)-Azepan-4-yl]-7-oxo-6-(sulfooxy)-1,6-diazabicyclo[3.2.1]-octane-2-carboxamide] | 245 nM |  | 245 nM | 6.25 µM | 12.5 µM | 25 µM | 3.12 µM | 6.25 µM | 6.25 µM | 69 nM |  |  |  | 
